The assay concerns the target Poly [ADP-ribose] polymerase 1 (Homo sapiens, UniProt P09874). The experiment in a line: PARP-1 Enzyme Activity Assay. The method, then: PARP-1 chemical […] detection kit was purchased from BPS Bioscience. The histone solution in the kit was diluted 5× with 1×PBS, and 25 μL of the diluted histone solution was added to a microwell plate and incubated overnight at 4° C. After the incubation, the plate was washed three times with PBST (0.05% Tween-20). 100 μL of the blocking solution was added to the microwell plate and incubated at 25° C. for 90 minutes. After the incubation, the plate was washed three times with PBST. 2.5 μL of compounds at different concentrations diluted in test buffer and 12.5 μL of substrate mixed solution (1.25 μL 10×PARP test buffer; 1.25 μL 10×PARP test mixed solution; 2.5 μL Activated DNA, 7.5 μL double-distilled water) were added to the microwell plate. […] Streptavidin-HRP was diluted 50× with a blocking solution, and 25 μL of the diluent was added to the microwell plate and incubated at 25° C. for 30 minutes. After the incubation, the plate was washed three times with PBST. ELISA ECL substrate A and substrate B were mixed at a ratio of 1:1 (v/v), 50 μL of the mixture was added to the microwell plate, and the chemiluminescence value was read.

Each structure is given as a SMILES string.

Sequence of Poly [ADP-ribose] polymerase 1 (P09874 whole entry): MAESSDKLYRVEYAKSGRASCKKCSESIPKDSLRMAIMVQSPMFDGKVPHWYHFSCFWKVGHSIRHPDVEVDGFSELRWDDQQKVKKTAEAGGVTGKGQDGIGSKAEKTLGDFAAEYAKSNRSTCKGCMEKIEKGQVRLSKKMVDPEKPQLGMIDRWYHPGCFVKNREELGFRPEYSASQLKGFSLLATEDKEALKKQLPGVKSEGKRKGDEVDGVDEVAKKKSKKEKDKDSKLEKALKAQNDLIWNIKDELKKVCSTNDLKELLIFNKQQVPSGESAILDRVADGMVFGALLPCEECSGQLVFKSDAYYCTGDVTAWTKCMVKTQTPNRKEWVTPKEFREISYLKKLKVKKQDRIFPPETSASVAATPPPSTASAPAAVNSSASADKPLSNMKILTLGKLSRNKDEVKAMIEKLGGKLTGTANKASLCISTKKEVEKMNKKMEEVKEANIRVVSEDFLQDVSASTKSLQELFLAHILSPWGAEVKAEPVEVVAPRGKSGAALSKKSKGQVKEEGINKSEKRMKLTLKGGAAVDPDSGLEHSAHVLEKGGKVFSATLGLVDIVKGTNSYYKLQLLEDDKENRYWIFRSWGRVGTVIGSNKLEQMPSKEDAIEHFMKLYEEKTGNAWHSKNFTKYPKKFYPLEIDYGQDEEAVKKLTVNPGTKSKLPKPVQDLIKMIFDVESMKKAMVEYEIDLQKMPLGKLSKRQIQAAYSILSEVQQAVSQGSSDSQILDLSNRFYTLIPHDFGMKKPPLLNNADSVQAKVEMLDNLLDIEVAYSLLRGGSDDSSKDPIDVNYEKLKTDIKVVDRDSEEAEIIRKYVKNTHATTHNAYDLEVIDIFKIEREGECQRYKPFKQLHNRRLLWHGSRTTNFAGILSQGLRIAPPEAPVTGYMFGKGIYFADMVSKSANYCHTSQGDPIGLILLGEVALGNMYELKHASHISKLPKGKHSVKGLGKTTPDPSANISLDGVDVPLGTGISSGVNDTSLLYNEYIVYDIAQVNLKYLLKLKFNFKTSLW

For `CCc1cc2ncc(CN3CCC(Nc4ccc(C(=O)NC)nc4)C3)cc2[nH]c1=O` (stereo unspecified) [US20250034168, Compound 7], the IC50 came to 2.8 nM.

By IC50 is commonly meant the midpoint of a concentration-inhibition curve. Read a high IC50 as weaker potency in that assay.

Source of the values: BindingDB's records for patent US20250034168 (Xizang Haisco Pharmaceutical, 2025).
